# Assay results taken from patent US20230022157A1 (Achillion Pharmaceuticals, Inc., priority 2018, published 2023).
# Counter-ions that a name gives are not always drawn.
# Target: T1, Human Factor D (Homo sapiens, UniProt P00746)
# T1 construct: purified from human serum; purchased Complement Technology, Inc; host or cells: human serum (natural protein, not recombinant)
# Test: Human Factor D Assay
# Assay type: biochemical
# Conditions: not given
# In short: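 Serum-purified human factor D (80 nM final) preincubated 5 min at room temperature with test compound in 50 mM Tris, 1M NaCl, pH 7.5. Z-L-Lys-SBzl substrate and DTNB then added, each at 100 μM final. IC50 from nonlinear regression of reaction rate against compound concentration.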
# T1 sequence (P00746 26-253): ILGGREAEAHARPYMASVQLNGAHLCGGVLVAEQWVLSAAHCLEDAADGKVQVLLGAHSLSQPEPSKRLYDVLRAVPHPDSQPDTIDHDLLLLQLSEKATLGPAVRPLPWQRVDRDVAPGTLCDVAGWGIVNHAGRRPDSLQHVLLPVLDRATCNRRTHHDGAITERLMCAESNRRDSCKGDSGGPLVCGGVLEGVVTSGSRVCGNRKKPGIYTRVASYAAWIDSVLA
row,SMILES,IC50 [nM]
1,"CC(=O)c1nn(CC(=O)N2[C@H](C(=O)Nc3nc(Br)ccc3C)C[C@@]3(CNC(=O)COCCOCCNC(=O)COCCOCCNC(=O)CC[C@H](NC(=O)CCCCCCCCCCCCCCCCC(=O)O)C(=O)O)C[C@@H]23)c2ccc(OC(=O)NC3CC3)cc12 [Compound 15, (S)-1-((1R,3S,5R)-2-(2-(3-acetyl-5-((cyclopropylcarbamoyl)oxy)-1H-indazol-1-yl)acetyl)-3-((6-bromo-3-methylpyridin-2-yl)carbamoyl)-2-azabicyclo[3.1.0]hexan-5-yl)-24-carboxy-3,12,21,26-tetraoxo-5,8,14,17-tetraoxa-2,11,20,25-tetraazatritetracontan-43-oic acid]",< 1000

# Same assay, conditions: Human Factor D 80 nM, substrate Z-L-Lys-SBzl, assay of Example 3; read-out: IC50 (Stars)
row,IC50 [nM],SMILES
1,< 1000,"CC(=O)c1nn(CC(=O)N2[C@H](C(=O)Nc3cccc(C(F)(F)F)c3F)C[C@@]3(C)C[C@@H]23)c2ccc(-c3cnc4cc(C)nn4c3)cc12 [Compound 25, (1R,3S,5R)-2-(2-(3-Acetyl-5-(2-methylpyrazolol[1,5-A]pyrimidin-6-yl)-1H-indazol-1-yl)acetyl)-N-(2-fluoro-3-(trifluoromethyl)phenyl)-5-methyl-2-azabicyclo[3.1.0]hexane-3-carboxamide]"
2,< 1000,"CC(=O)c1nn(CC(=O)N2[C@H](C(=O)Nc3nc(Br)ccc3C)C[C@@]3(C)C[C@@H]23)c2ccc(-c3cnc(CO)nc3)cc12 [Compound 30, (1R,3S,5R)-2-(2-(3-acetyl-5-(2-(hydroxymethyl)pyrimidin-5-yl)-1H-indazol-1-yl)acetyl)-N-(6-bromo-3-methylpyridin-2-yl)-5-methyl-2-azabicyclo[3.1.0]hexane-3-carboxamide]"

row,SMILES,IC50 [nM]
1,"CC(=O)c1nn(CC(=O)N2[C@H](C(=O)NCCc3ccc(Cl)cc3Cl)C[C@@]3(C)C[C@@H]23)c2c(C)cc(-c3cnc(C)nc3)cc12 [Compound 5, (1R,3S,5R)-2-(2-(3-Acetyl-7-methyl-5-(2-methylpyrimidin-5-yl)-1H-indazol-1-yl)acetyl)-N-(2,4-dichlorophenethyl)-5-methyl-2-azabicyclo[3.1.0]hexane-3-carboxamide]",< 1000

# Same assay, conditions: Human Factor D 80 nM, substrate Z-L-Lys-SBzl; Table 2; read-out: IC50 (Stars)
row,SMILES,IC50 [nM]
1,"CC(=O)c1nn(CC(=O)N2[C@H](C(=O)Nc3nc(Br)c(F)cc3C)C[C@@]3(C)C[C@@H]23)c2c(C)cc(-c3ccc(CO)nc3)cc12 [Compound 118, (1R,3S,5R)-2-(2-(3-acetyl-5-(6-(hydroxymethyl)pyridin-3-yl)-7-methyl-1H-indazol-1-yl)acetyl)-N-(6-bromo-5-fluoro-3-methylpyridin-2-yl)-5-methyl-2-azabicyclo[3.1.0]hexane-3-carboxamide]",< 1000
2,"CC(=O)c1nn(CC(=O)N2[C@H](C(=O)N[C@@H](C(C)(C)C)C(F)(F)F)C[C@@]3(C)C[C@@H]23)c2c(C)cc(-c3cnc(C)nc3)cc12 [Compound 154, (1R,3S,5R)-2-{2-[3-acetyl-7-methyl-5-(2-methylpyrimidin-5-yl)indazol-1-yl]acetyl}-5-methyl-N-[(2S)-1,1,1-trifluoro-3,3-dimethylbutan-2-yl]-2-azabicyclo[3.1.0]hexane-3-carboxamide]",1000 to 10000
3,"CC(=O)c1nn(CC(=O)N2[C@H](C(=O)Nc3nc(OC(F)(F)F)ccc3C)C[C@@]3(C)C[C@@H]23)c2c(C)cc(-c3cnc(CO)nc3)cc12 [Compound 55, (1R,3S,5R)-2-(2-(3-acetyl-5-(2-(hydroxymethyl)pyrimidin-5-yl)-7-methyl-1H-indazol-1-yl)acetyl)-5-methyl-N-(3-methyl-6-(trifluoromethoxy)pyridin-2-yl)-2-azabicyclo[3.1.0]hexane-3-carboxamide]",< 1000
4,"CC(=O)c1nn(CC(=O)N2[C@H](C(=O)Nc3nc(C(F)(F)F)ccc3C)C[C@@]3(C)C[C@@H]23)c2c(C)cc(-c3cnc4cc(C)nn4c3)cc12 [Compound 224, (1R,3S,5R)-2-(2-(3-acetyl-7-methyl-5-(2-methylpyrazolo[1,5-a]pyrimidin-6-yl)-1H-indazol-1-yl)acetyl)-5-methyl-N-(3-methyl-6-(trifluoromethyl)pyridin-2-yl)-2-azabicyclo[3.1.0]hexane-3-carboxamide]",< 1000
5,"CC(=O)c1cn(CC(=O)N2[C@H](C(=O)Nc3nc(Br)c(F)cc3C)C[C@@]3(C)C[C@@H]23)c2c(C)cc(-c3cnc(CF)nc3)cc12 [Compound 217, (1R,3S,5R)-2-(2-(3-acetyl-5-(2-(fluoromethyl)pyrimidin-5-yl)-7-methyl-1H-indol-1-yl)acetyl)-N-(6-bromo-5-fluoro-3-methylpyridin-2-yl)-5-methyl-2-azabicyclo[3.1.0]hexane-3-carboxamide]",< 1000
6,"CC(=O)c1nn(CC(=O)N2[C@H](C(=O)NC(C)Cc3ccoc3)C[C@@]3(C)C[C@@H]23)c2c(C)cc(-c3cnc(C)nc3)cc12 (stereo partly drawn) [Compound 181, (1R,3S,5R)-2-{2-[3-acetyl-7-methyl-5-(2-methylpyrimidin-5-yl)indazol-1-yl]acetyl}-N-[1-(furan-3-yl)propan-2-yl]-5-methyl-2-azabicyclo[3.1.0]hexane-3-carboxamide]",< 1000
7,CC(=O)c1cn(CC(=O)N2[C@H](C(=O)Nc3nc(Br)c(F)cc3C)C[C@@]3(C)C[C@@H]23)c2c(C3CC3)cc(-c3cnc(C)nc3)cc12 [Compound 162],< 1000
8,"CC(=O)c1cn(CC(=O)N2[C@H](C(=O)Nc3cnc(C)c(Br)n3)C[C@@]3(C)C[C@@H]23)c2c(C)cc(-c3cnc(C)nc3)cc12 [Compound 160, (1R,3S,5R)-2-(2-(3-acetyl-7-methyl-5-(2-methylpyrimidin-5-yl)-1H-indol-1-yl)acetyl)-N-(6-bromo-5-methylpyrazin-2-yl)-5-methyl-2-azabicyclo[3.1.0]hexane-3-carboxamide]",< 1000

# Other lines, results leading:
row,IC50 [nM],SMILES
1,< 1000,"CC(=O)c1cn(CC(=O)N2[C@H](C(=O)Nc3nc(C(F)(F)F)ccc3C)C[C@@]3(C)C[C@@H]23)c2c(C)cc(-c3cnc(CO)nc3)cc12 [Compound 161, (1R,3S,5R)-2-(2-(3-acetyl-5-(2-(hydroxymethyl)pyrimidin-5-yl)-7-methyl-1H-indol-1-yl)acetyl)-5-methyl-N-(3-methyl-6-(trifluoromethyl)pyridin-2-yl)-2-azabicyclo[3.1.0]hexane-3-carboxamide]"
2,< 1000,"COc1cc(Br)nc(NC(=O)[C@@H]2C[C@@]3(C)C[C@H]3N2C(=O)Cn2nc(C(N)=O)c3cc(-c4cnc(C)nc4)nc(C)c32)c1 [Compound 113, 1-(2-((1R,3S,5R)-3-((6-bromo-4-methoxypyridin-2-yl)carbamoyl)-5-methyl-2-azabicyclo[3.1.0]hexan-2-yl)-2-oxoethyl)-7-methyl-5-(2-methylpyrimidin-5-yl)-1H-pyrazolo[3,4-c]pyridine-3-carboxamide]"
3,< 1000,"Cc1ncc(-c2cc3c(C(N)=O)nn(CC(=O)N4[C@H](C(=O)Nc5nc(Br)c(F)cc5C)C[C@@]5(C)C[C@@H]45)c3c(CO)n2)cn1 [Compound 184, 1-(2-((1R,3S,5R)-3-((6-bromo-5-fluoro-3-methylpyridin-2-yl)carbamoyl)-5-methyl-2-azabicyclo[3.1.0]hexan-2-yl)-2-oxoethyl)-7-(hydroxymethyl)-5-(2-methylpyrimidin-5-yl)-1H-pyrazol[3,4-c]pyridine-3-carboxamide]"
4,< 1000,"CC(=O)c1cn(CC(=O)N2C[C@H]3C[C@H]3[C@H]2C(=O)Nc2nc(Br)c(F)cc2C)c2c(C)cc(-c3cnc(CO)nc3)cc12 [Compound 83, (1R,2S,5S)-3-(2-(3-acetyl-5-(2-(hydroxymethyl)pyrimidin-5-yl)-7-methyl-11H-indol-1-yl)acetyl)-N-(6-bromo-5-fluoro-3-methylpyridin-2-yl)-3-azabicyclo[3.1.0]hexane-2-carboxamide]"
5,< 1000,"CC(=O)c1cn(CC(=O)N2[C@H](C(=O)Nc3nc(Br)ccc3C)C[C@@]3(C)C[C@@H]23)c2c(C)cc(-c3cnc4cc(C)nn4c3)cc12 [Compound 198, (1R,3S,5R)-2-(2-(3-acetyl-7-methyl-5-(2-methylpyrazolo[1,5-a]pyrimidin-6-yl)-1H-indol-1-yl)acetyl)-N-(6-bromo-3-methylpyridin-2-yl)-5-methyl-2-azabicyclo[3.1.0]hexane-3-carboxamide]"
6,< 1000,"Cc1ncc(-c2ccc3c(c2)c(C2OCCO2)nn3CC(=O)N2[C@H](C(=O)Nc3nc(Br)ccc3C)C[C@@]3(C)C[C@@H]23)cn1 [Compound 143, (1R,3S,5R)-2-(2-(3-(1,3-dioxolan-2-yl)-5-(2-methylpyrimidin-5-yl)-1H-indazol-1-yl)acetyl)-N-(6-bromo-3-methylpyridin-2-yl)-5-methyl-2-azabicyclo[3.1.0]hexane-3-carboxamide]"
7,< 1000,"CC(=O)c1cn(CC(=O)N2[C@H]3CC[C@H](C3)[C@H]2C(=O)Nc2nc(Br)ccc2C)c2c(C)cc(-c3cnc(C)nc3)cc12 [Compound 178, (1S,3S,4R)-2-(2-(3-acetyl-7-methyl-5-(2-methylpyrimidin-5-yl)-1H-indol-1-yl)acetyl)-N-(6-bromo-3-methylpyridin-2-yl)-2-azabicyclo[2.2.1]heptane-3-carboxamide]"
8,< 1000,"CC(=O)c1cn(CC(=O)N2[C@H](C(=O)Nc3cncc(Br)n3)C[C@@]3(C)C[C@@H]23)c2c(C)cc(-c3cnc(C(C)O)nc3)cc12 (stereo partly drawn) [Compound 159, (1R,3S,5R)-2-(2-(3-acetyl-5-(2-(1-hydroxyethyl)pyrimidin-5-yl)-7-methyl-1H-indol-1-yl)acetyl)-N-(6-bromopyrazin-2-yl)-5-methyl-2-azabicyclo[3.1.0]hexane-3-carboxamide]"
9,< 1000,"CC(=O)c1nn(CC(=O)N2C[C@@H](C(C)(C)N)C[C@H]2C(=O)Nc2nc(C(F)(F)F)ccc2C)c2c(C)cc(-c3cnc(C)nc3)cc12 [Compound 56, (2S,4S)-1-(2-(3-acetyl-7-methyl-5-(2-methylpyrimidin-5-yl)-1H-indazol-1-yl)acetyl)-4-(2-aminopropan-2-yl)-N-(3-methyl-6-(trifluoromethyl)pyridin-2-yl)pyrrolidine-2-carboxamide hydrochloride]"
10,< 1000,CC(=O)c1ncc(-c2cc(C)c3c(c2)c(C(C)=O)nn3CC(=O)N2[C@H](C(=O)Nc3nc(Br)ccc3C)C[C@@]3(C)C[C@@H]23)cn1 [Compound 58]
